# Test results reported in ChEMBL document CHEMBL1124092 (J Med Chem, 1988).
# pKi: −log10 of the molar value. Activity calls are given as the source filed them. The calls are words filed in the database; no cut-off is given here.
# Columns and labels:
# Rattus norvegicus [1] = experiment: The dose at which the animals would show 50% response on 8-OH-DPAT appropriate lever at a dose 0.2 mg/kg (7/7 no of animals); type: functional
# [2] = target: T1, Serotonin 2 (5-HT2) receptor (Rattus norvegicus, UniProt P30994+P08909+P14842); experiment: Binding affinity towards 5-hydroxytryptamine 2 receptor using [3H]- ketanserin as radioligand; type: protein assay
# Rattus norvegicus [3] = experiment: 8-OH-DPAT appropriate response of animals/min rate in %0.2 mg/Kg where stimulus generalization occurred(7/7 no of animals); type: functional
# [4] = target: T1, Serotonin 2 (5-HT2) receptor; experiment: Binding affinity towards 5-hydroxytryptamine 2 receptor using [3H]- 1-(4-bromo-2,5-dimethoxy-phenyl)-2-aminopropane (D) as radioligand; type: protein assay
# Rattus norvegicus [5] = experiment: 8-OH-DPAT appropriate response rate in % at 0.2 mg/kg where stimulus generalization occurred(7/7 no of animals); type: functional
# [6] = target: T2, 5-hydroxytryptamine receptor 1A (Rattus norvegicus, UniProt P19327); experiment: Binding affinity towards 5-hydroxytryptamine 1A receptor
# T2 sequence (P19327 whole entry): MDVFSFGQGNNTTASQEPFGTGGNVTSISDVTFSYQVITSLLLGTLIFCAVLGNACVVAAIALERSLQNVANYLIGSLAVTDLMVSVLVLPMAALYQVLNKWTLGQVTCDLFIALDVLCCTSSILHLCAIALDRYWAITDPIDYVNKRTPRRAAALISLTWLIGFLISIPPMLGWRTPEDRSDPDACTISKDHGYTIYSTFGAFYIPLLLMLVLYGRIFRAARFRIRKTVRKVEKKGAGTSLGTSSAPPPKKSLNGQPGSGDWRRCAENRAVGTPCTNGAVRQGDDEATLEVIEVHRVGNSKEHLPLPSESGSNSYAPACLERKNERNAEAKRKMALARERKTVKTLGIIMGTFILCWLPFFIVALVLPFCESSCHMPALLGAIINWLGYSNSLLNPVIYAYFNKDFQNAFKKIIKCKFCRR
# Rattus norvegicus [7] = species: Rattus norvegicus; experiment: The dose at which the animals would show 50% responses on compound-appropriate lever; type: functional
# [8] = target: T3, 5-hydroxytryptamine receptor 1B (Rattus norvegicus, UniProt P28564); experiment: Evaluated for binding affinity towards 5-hydroxytryptamine 1B receptor
# Rattus norvegicus [9] = species: Rattus norvegicus; experiment: The dose at which the animals show 50% responses on drug-appropriate lever; type: functional
# [10] = target: T3, 5-hydroxytryptamine receptor 1B; experiment: Binding affinity against 5-HT1B serotonin receptor in rat striatum; type: tissue-based
# [11] = target: T2, 5-hydroxytryptamine receptor 1A; experiment: Binding affinity against 5-hydroxytryptamine 1A receptor in rat hippocampal tissue; type: tissue-based, Hippocampus
# Rattus norvegicus [12] = experiment: DOM appropriate response of animals/min at 1.0 mg/kg where stimulus generalization occurred (5/5 no of animals); type: functional
# Rattus norvegicus [13] = experiment: DOM appropriate response rate in % at 1.0 mg/kg where stimulus generalization occurred (5/5 no of animals); type: functional
# Rattus norvegicus [14] = experiment: 8-OH-DPAT appropriate response of animals/min rate in % 0.9 mg/kg where stimulus generalization occurred(4/7 no of animals); type: functional
# Rattus norvegicus [15] = experiment: 8-OH-DPAT appropriate response rate in % at 0.4 mg/kg where stimulus generalization occurred(4/5 no of animals); type: functional
# Rattus norvegicus [16] = experiment: DOM appropriate response of animals/min rate in % at 6.0 mg/Kg where stimulus generalization occurred(3/5 no of animals); type: functional
# Rattus norvegicus [17] = experiment: 8-OH-DPAT appropriate response rate in % at 0.9 mg/kg where stimulus generalization occurred (4/7 no of animals); type: functional
# Rattus norvegicus [18] = experiment: 8-OH-DPAT appropriate response of animals/min rate in % 1.0 mg/kg where stimulus generalization occurred(4/5 no of animals); type: functional
# Rattus norvegicus [19] = experiment: 8-OH-DPAT appropriate response rate in % at 1.1 mg/kg where stimulus generalization occurred(4/5 no of animals); type: functional
# Rattus norvegicus [20] = experiment: 8-OH-DPAT appropriate response of animals/min rate in % 0.4 mg/kg where stimulus generalization occurred(4/5 no of animals); type: functional
# Rattus norvegicus [21] = experiment: DOM appropriate response of animals/min rate in % at 5.0 mg/Kg where stimulus generalization occurred(4/5 no of animals); type: functional
# Rattus norvegicus [22] = species: Rattus norvegicus; experiment: DOM appropriate response of animals/min rate in % at […] where stimulus generalization occurred(5/5 no of animals); type: functional
# Rattus norvegicus [23] = experiment: DOM appropriate response rate in % at 2.0 mg/Kg where stimulus generalization occurred(4/5 no of animals); type: functional
# Rattus norvegicus [24] = species: Rattus norvegicus; experiment: DOM appropriate response rate in % at […] where stimulus generalization occurred(5/5 no of animals); type: functional
# Rattus norvegicus [25] = experiment: 8-OH-DPAT appropriate response rate in % at 1.0 mg/kg where stimulus generalization occurred(4/5 no of animals); type: functional
# Rattus norvegicus [26] = experiment: The dose at which the animals would show 50% responses on DOM appropriate lever at a dose 6.0 mg/kg; type: functional
# Rattus norvegicus [27] = experiment: 8-OH-DPAT appropriate response of animals/min rate in % 0.8 mg/kg where stimulus generalization occurred(3/4 no of animals); type: functional
# Rattus norvegicus [28] = experiment: DOM appropriate response rate in % at 5.0 mg/Kg where stimulus generalization occurred(4/5 no of animals); type: functional
# Rattus norvegicus [29] = experiment: DOM appropriate response rate in % at 0.6 mg/Kg where stimulus generalization occurred(5/5 no of animals); type: functional
# Rattus norvegicus [30] = experiment: 8-OH-DPAT appropriate response rate in % at 0.8 mg/kg where stimulus generalization occurred(3/4 no of animals); type: functional
# Rattus norvegicus [31] = experiment: DOM appropriate response of animals/min rate in % at 2.0 mg/kg where stimulus generalization occurred(4/5 no of animals); type: functional
# Rattus norvegicus [32] = experiment: DOM appropriate response rate in % at 6.0 mg/Kg where stimulus generalization occurred(3/5 no of animals); type: functional
# Rattus norvegicus [33] = experiment: 8-OH-DPAT appropriate response of animals/min rate in % 1.1 mg/kg where stimulus generalization occurred(4/5 no of animals); type: functional
# Rattus norvegicus [34] = species: Rattus norvegicus; experiment: 8-OH-DPAT appropriate response rate in % at […] where stimulus generalization occurred(2/5 no of animals); No responding; type: functional, organism-based; set-up: dose 1.2 mg/kg
# Rattus norvegicus [35] = experiment: DOM appropriate response of animals/min rate in % at 0.6 mg/Kg where stimulus generalization occurred(5/5 no of animals); type: functional
# T3 sequence (P28564 whole entry): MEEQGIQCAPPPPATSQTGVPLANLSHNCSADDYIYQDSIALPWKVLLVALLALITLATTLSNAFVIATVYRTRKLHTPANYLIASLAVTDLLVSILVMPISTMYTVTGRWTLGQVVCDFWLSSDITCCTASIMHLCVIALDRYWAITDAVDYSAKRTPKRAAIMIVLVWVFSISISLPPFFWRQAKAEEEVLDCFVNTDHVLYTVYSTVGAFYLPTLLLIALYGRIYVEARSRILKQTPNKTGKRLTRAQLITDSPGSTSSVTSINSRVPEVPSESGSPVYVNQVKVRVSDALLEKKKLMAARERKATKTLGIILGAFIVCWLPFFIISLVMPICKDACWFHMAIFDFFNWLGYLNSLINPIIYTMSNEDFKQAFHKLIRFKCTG
compound,measurement,setting,value
CCCN(CCC)C1CCc2cccc(O)c2C1 (configuration not stated) [8-OH-DPAT],ED50,Rattus norvegicus [1],0.08 mg/kg
same,Ki,[2],5350 nM
same,Response,Rattus norvegicus [3],16.8
same,Ki,[4],635 nM
same,Responding,Rattus norvegicus [5],88%
CCCN(CCC)C1CCc2cccc(OC)c2C1 (configuration not stated),pKi,[6],8.89
same,Ki,[2],3050 nM
same,ED50,Rattus norvegicus [7],0.22 mg/kg
same,pKi,[8],< 6.00
same,Ki,[4],280 nM
COc1ccc2[nH]cc(CCN(C)C)c2c1 [MEBUFOTENIN],pKi,[6],8.11
same,ED50,Rattus norvegicus [9],1.43 mg/kg
same,pKi,[8],6.46
COc1cc(CC(C)N)c(OC)cc1C (configuration not stated) [DOM],pKi,[10],5.68
same,pKi,[11],5.29
same,Response,Rattus norvegicus [12],12.8
same,Responding,Rattus norvegicus [13],92%
CCCN(CCC)CCc1c[nH]c2ccc(OC)cc12,Response,Rattus norvegicus [14],13.6
same,Responding,Rattus norvegicus [15],15%
same,Response,Rattus norvegicus [16],5.2
same,Responding,Rattus norvegicus [17],56%
same,pKi,[6],8.40
same,Response,Rattus norvegicus [18],5.6
same,Responding,Rattus norvegicus [19],81%
same,Response,Rattus norvegicus [20],13.6
same,Ki,[2],655 nM
same,Response,Rattus norvegicus [21],10.3
same,Response,Rattus norvegicus [22],12.3
same,Responding,Rattus norvegicus [23],51%
same,Responding,Rattus norvegicus [24],49%
same,pKi,[8],5.74
same,Responding,Rattus norvegicus [25],67%
same,ED50,Rattus norvegicus [26],1.68 mg/kg
same,Response,Rattus norvegicus [27],9.2
same,Ki,[4],7.1 nM
same,Responding,Rattus norvegicus [28],74%
same,Responding,Rattus norvegicus [29],21%
same,Responding,Rattus norvegicus [30],56%
same,Response,Rattus norvegicus [31],12
same,Responding,Rattus norvegicus [32],91%
same,Response,Rattus norvegicus [33],4.1
same,Responding,Rattus norvegicus [34],inactive
same,Response,Rattus norvegicus [35],10.2
CCCN(CCC)CCc1c[nH]c2ccc(O)cc12,pKi,[6],8.15
same,Ki,[2],450 nM
same,pKi,[8],5.37
same,Ki,[4],1 nM
